Article PMC9653173, “Trotabresib (CC-90010) in combination with adjuvant temozolomide or concomitant temozolomide plus radiotherapy in patients with newly diagnosed glioblastoma” (Neuro-Oncology Advances, 2022)
Where “and” joins values, the source holds several entries; their conditions need not be identical. Equal entries are not always repeated. Where two headings read alike, the source gives them in different places.

Test system: patients with newly diagnosed glioblastoma
Conditions: for TEAEs leading to discontinuation of the labelled study drug(s), patients: February 20, 2022 cutoff; for ALT increased TRAE, any grade / ALT increased TRAE, grade 3/4 / AST increased TRAE, any grade / AST increased TRAE, grade 3/4 / Acneiform dermatitis TRAE, any grade / Acneiform dermatitis TRAE, grade 3/4 / Anemia TRAE, any grade / Anemia TRAE, grade 3/4 / Any TRAE, any grade / Any TRAE, grade 3/4 / Asthenia TRAE, any grade / Asthenia TRAE, grade 3/4 / Blood bilirubin increased TRAE, any grade / Blood bilirubin increased TRAE, grade 3/4 / Decreased appetite TRAE, any grade / Decreased appetite TRAE, grade 3/4 / Diarrhea TRAE, any grade / Diarrhea TRAE, grade 3/4 / Dysgeusia TRAE, any grade / Dysgeusia TRAE, grade 3/4 / Dyspepsia TRAE, any grade / Dyspepsia TRAE, grade 3/4 / Fatigue TRAE, any grade / Fatigue TRAE, grade 3/4 / Hyperbilirubinemia TRAE, any grade / Hyperbilirubinemia TRAE, grade 3/4 / Hyperglycemia TRAE, any grade / Hyperglycemia TRAE, grade 3/4 / Hypophosphatemia TRAE, any grade / Hypophosphatemia TRAE, grade 3/4 / Hypotension TRAE, any grade / Hypotension TRAE, grade 3/4 / Insomnia TRAE, any grade / Insomnia TRAE, grade 3/4 / Intracranial hemorrhage TRAE, any grade / Intracranial hemorrhage TRAE, grade 3/4 / Leukopenia TRAE, any grade / Leukopenia TRAE, grade 3/4 / Lymphopenia TRAE, any grade / Lymphopenia TRAE, grade 3/4 / Nausea TRAE, any grade / Nausea TRAE, grade 3/4 / Neutropenia TRAE, any grade / Neutropenia TRAE, grade 3/4 / Pruritus TRAE, any grade / Pruritus TRAE, grade 3/4 / Rash TRAE, any grade / Rash TRAE, grade 3/4 / Seizure TRAE, any grade / Seizure TRAE, grade 3/4 / Thrombocytopenia TRAE, any grade / Thrombocytopenia TRAE, grade 3/4 / Vomiting TRAE, any grade / Vomiting TRAE, grade 3/4: related to labelled drug(s)
Excerpt: The phase Ib, dose-escalation part of this study explored escalating oral doses of trotabresib in combination with TMZ in the adjuvant setting and with TMZ plus RT in the concomitant setting. […] Dose-escalation decisions were made by the safety review committee, based on all available safety, pharmacokinetics, pharmacodynamics, and preliminary efficacy information, and a calculation of risk assessment using a Bayesian logistic regression model.
The primary endpoints of the study were to determine the safety and tolerability, maximum tolerated dose, and/or recommended phase II dose (RP2D) of trotabresib in combination with TMZ as adjuvant therapy, and with TMZ and RT as concomitant therapy. […] Trotabresib pharmacodynamics was an exploratory endpoint.
Adverse events (AEs) were classified using the Medical Dictionary for Regulatory Activities v18.1 or higher system organ class and preferred term. Severity of AEs was graded based on the patient’s symptoms according to the National Cancer Institute Common Terminology Criteria for Adverse Events v5.0.[35] Dose-limiting toxicities (DLTs) were defined as any of the toxicities described in Supplementary Table S2 occurring within the DLT assessment period (cycle 1 [28 days]), unless the event could clearly be determined to be unrelated to trotabresib. Screening MRI scans were performed after surgical resection and within 28 days (+3 days) prior to initiation of study treatment. Subsequent tumor assessments by MRI or CT were performed at week 10 during the concomitant treatment period and at the end of every other treatment cycle from cycle 2 onwards during the adjuvant and trotabresib monotherapy treatment periods. Best overall response (BOR) was evaluated as complete response (CR), partial response (PR), SD, progressive disease (PD), or not evaluable, according to Response Assessment in Neuro-Oncology criteria for high-grade glioma.[36] Plasma samples were collected during the first treatment cycle for investigation of trotabresib pharmacokinetics and pharmacodynamics. Plasma pharmacokinetic parameters assessed included peak plasma concentration (Cmax), time to peak plasma concentration (tmax), area under the plasma concentration–time curve (AUC), and terminal half-life (t½). Pharmacodynamic markers assessed included blood levels of CCR1 and HEXIM1 mRNA, which are established markers of BET inhibitor target engagement.[17],[22],[37],[38]

## Cn1cc(-c2cc(S(C)(=O)=O)ccc2OCC2CC2)c2ccccc2c1=O [Trotabresib]
Adjuvant 30 mg (n = 6)
  TRAEs leading to discontinuation of TMZ, related to labelled drug(s): 1 (17) 1 (17) 1 (17) n (%)
  TRAEs leading to discontinuation of any study drug, related to labelled drug(s): 1 (17) 1 (17) 1 (17) n (%)
  TRAEs leading to discontinuation of trotabresib, related to labelled drug(s): 1 (17) 1 (17) 1 (17) n (%)
  TEAEs leading to discontinuation of the labelled study drug(s), patients: 1 (17) 1 (17) 1 (17) n (%)
Adjuvant 45 mg (n = 7)
  TEAEs leading to discontinuation of the labelled study drug(s), patients: 1 (14) 1 (14) 1 (14) n (%)
Adjuvant (+ TMZ) and concomitant (+ TMZ + RT) settings, 4 days on/24 days off
  Recommended phase II dose (RP2D): 30 mg
Adjuvant overall
  Rash and other skin-related TRAEs attributed to trotabresib only: 7 (39%) n (%)
Adjuvant overall (N = 18)
  TRAEs leading to discontinuation of TMZ, related to labelled drug(s): 1 (6) 1 (6) 1 (6) n (%)
  TRAEs leading to discontinuation of any study drug, related to labelled drug(s): 1 (6) 1 (6) 1 (6) n (%)
  TRAEs leading to discontinuation of trotabresib, related to labelled drug(s): 1 (6) 1 (6) 1 (6) n (%)
  TEAEs leading to discontinuation of the labelled study drug(s), patients: 2 (11) 2 (11) 2 (11) n (%)
  ALT increased TRAE, any grade: 1 (6) n (%)
  ALT increased TRAE, grade 3/4: 0 n (%)
  AST increased TRAE, any grade: 1 (6) n (%)
  AST increased TRAE, grade 3/4: 0 n (%)
  Acneiform dermatitis TRAE, any grade: 3 (17) n (%)
  Acneiform dermatitis TRAE, grade 3/4: 0 n (%)
  Anemia TRAE, any grade: 4 (22) n (%)
  Anemia TRAE, grade 3/4: 0 n (%)
  Any TRAE, any grade: 16 (89) n (%)
  Any TRAE, grade 3/4: 9 (50) n (%)
  Asthenia TRAE, any grade: 7 (39) n (%)
  Asthenia TRAE, grade 3/4: 1 (6) n (%)
  Blood bilirubin increased TRAE, any grade: 0 n (%)
  Blood bilirubin increased TRAE, grade 3/4: 0 n (%)
  Decreased appetite TRAE, any grade: 6 (33) n (%)
  Decreased appetite TRAE, grade 3/4: 0 n (%)
  Diarrhea TRAE, any grade: 11 (61) n (%)
  Diarrhea TRAE, grade 3/4: 1 (6) n (%)
  Dysgeusia TRAE, any grade: 6 (33) n (%)
  Dysgeusia TRAE, grade 3/4: 0 n (%)
  Dyspepsia TRAE, any grade: 2 (11) n (%)
  Dyspepsia TRAE, grade 3/4: 0 n (%)
  Fatigue TRAE, any grade: 2 (11) n (%)
  Fatigue TRAE, grade 3/4: 0 n (%)
  Hyperbilirubinemia TRAE, any grade: 6 (33) n (%)
  Hyperbilirubinemia TRAE, grade 3/4: 1 (6) n (%)
  Hyperglycemia TRAE, any grade: 4 (22) n (%)
  Hyperglycemia TRAE, grade 3/4: 1 (6) n (%)
  Hypophosphatemia TRAE, any grade: 2 (11) n (%)
  Hypophosphatemia TRAE, grade 3/4: 0 n (%)
  Hypotension TRAE, any grade: 2 (11) n (%)
  Hypotension TRAE, grade 3/4: 0 n (%)
  Insomnia TRAE, any grade: 2 (11) n (%)
  Insomnia TRAE, grade 3/4: 0 n (%)
  Intracranial hemorrhage TRAE, any grade: 1 (6) n (%)
  Intracranial hemorrhage TRAE, grade 3/4: 1 (6) n (%)
  Leukopenia TRAE, any grade: 1 (6) n (%)
  Leukopenia TRAE, grade 3/4: 0 n (%)
  Lymphopenia TRAE, any grade: 2 (11) n (%)
  Lymphopenia TRAE, grade 3/4: 1 (6) n (%)
  Nausea TRAE, any grade: 9 (50) n (%)
  Nausea TRAE, grade 3/4: 0 n (%)
  Neutropenia TRAE, any grade: 5 (28) n (%)
  Neutropenia TRAE, grade 3/4: 3 (17) n (%)
  Pruritus TRAE, any grade: 3 (17) n (%)
  Pruritus TRAE, grade 3/4: 0 n (%)
  Rash TRAE, any grade: 5 (28) n (%)
  Rash TRAE, grade 3/4: 0 n (%)
  Seizure TRAE, any grade: 0 n (%)
  Seizure TRAE, grade 3/4: 0 n (%)
  Thrombocytopenia TRAE, any grade: 10 (56%) n (%) and 10 (56) n (%)
  Thrombocytopenia TRAE, grade 3/4: 7 (39%) n (%) and 7 (39) n (%)
  Vomiting TRAE, any grade: 4 (22) n (%)
  Vomiting TRAE, grade 3/4: 0 n (%)
adjuvant, trotabresib 30 mg
  Serious intracranial hemorrhage, attributed to trotabresib: 1 patient
adjuvant, trotabresib 45 mg
  Serious diarrhea, attributed to trotabresib: 1 patient
Both cohorts
  Treatment-related deaths: no treatment-related deaths
Concomitant overall
  Rash and other skin-related TRAEs attributed to trotabresib only: 4 (29%) n (%)
Concomitant overall (N = 14)
  ALT increased TRAE, any grade: 1 (7) n (%)
  ALT increased TRAE, grade 3/4: 1 (7) n (%)
  AST increased TRAE, any grade: 1 (7) n (%)
  AST increased TRAE, grade 3/4: 0 n (%)
  Acneiform dermatitis TRAE, any grade: 3 (21) n (%)
  Acneiform dermatitis TRAE, grade 3/4: 0 n (%)
  Anemia TRAE, any grade: 3 (21) n (%)
  Anemia TRAE, grade 3/4: 2 (14) n (%)
  Any TRAE, any grade: 14 (100) n (%)
  Any TRAE, grade 3/4: 7 (50) n (%)
  Asthenia TRAE, any grade: 3 (21) n (%)
  Asthenia TRAE, grade 3/4: 0 n (%)
  Blood bilirubin increased TRAE, any grade: 2 (14) n (%)
  Blood bilirubin increased TRAE, grade 3/4: 0 n (%)
  Decreased appetite TRAE, any grade: 3 (21) n (%)
  Decreased appetite TRAE, grade 3/4: 0 n (%)
  Diarrhea TRAE, any grade: 2 (14) n (%)
  Diarrhea TRAE, grade 3/4: 1 (7) n (%)
  Dysgeusia TRAE, any grade: 5 (36) n (%)
  Dysgeusia TRAE, grade 3/4: 0 n (%)
  Dyspepsia TRAE, any grade: 2 (14) n (%)
  Dyspepsia TRAE, grade 3/4: 0 n (%)
  Fatigue TRAE, any grade: 5 (36) n (%)
  Fatigue TRAE, grade 3/4: 1 (7) n (%)
  Hyperbilirubinemia TRAE, any grade: 2 (14) n (%)
  Hyperbilirubinemia TRAE, grade 3/4: 0 n (%)
  Hyperglycemia TRAE, any grade: 1 (7) n (%)
  Hyperglycemia TRAE, grade 3/4: 0 n (%)
  Hypophosphatemia TRAE, any grade: 1 (7) n (%)
  Hypophosphatemia TRAE, grade 3/4: 0 n (%)
  Hypotension TRAE, any grade: 0 n (%)
  Hypotension TRAE, grade 3/4: 0 n (%)
  Insomnia TRAE, any grade: 0 n (%)
  Insomnia TRAE, grade 3/4: 0 n (%)
  Intracranial hemorrhage TRAE, any grade: 0 n (%)
  Intracranial hemorrhage TRAE, grade 3/4: 0 n (%)
  Leukopenia TRAE, any grade: 0 n (%)
  Leukopenia TRAE, grade 3/4: 0 n (%)
  Lymphopenia TRAE, any grade: 2 (14) n (%)
  Lymphopenia TRAE, grade 3/4: 0 n (%)
  Nausea TRAE, any grade: 8 (57%) n (%) and 8 (57) n (%)
  Nausea TRAE, grade 3/4: 0 n (%)
  Neutropenia TRAE, any grade: 6 (43) n (%)
  Neutropenia TRAE, grade 3/4: 4 (29) n (%)
  Pruritus TRAE, any grade: 0 n (%)
  Pruritus TRAE, grade 3/4: 0 n (%)
  Rash TRAE, any grade: 1 (7) n (%)
  Rash TRAE, grade 3/4: 0 n (%)
  Seizure TRAE, any grade: 2 (14) n (%)
  Seizure TRAE, grade 3/4: 0 n (%)
  Thrombocytopenia TRAE, any grade: 9 (64%) n (%) and 9 (64) n (%)
  Thrombocytopenia TRAE, grade 3/4: 6 (43%) n (%) and 6 (43) n (%)
  Vomiting TRAE, any grade: 5 (36) n (%)
  Vomiting TRAE, grade 3/4: 0 n (%)
Trotabresib 30 mg 4 days on/24 days off
  Platelet nadir: > 100,000 /mm^3
